The values below come from publication PMC7530392, “A label‐free impedance assay in endothelial cells differentiates the activation and desensitization properties of clinical S1P1 agonists” (FEBS Open Bio, 2020).

The subject of one data set is human S1P1. Nature of the data set: β-arrestin recruitment assay in PathHunter cells overexpressing human S1P1. The format is cell-based. The settings on record: read-out: IC50 inhibition of β-arrestin recruitment. Here is the method:
The cellular potency of the GRK2 inhibitor was determined using a β‐arrestin recruitment assay in PathHunter® cells overexpressing human S1P1 (Eurofins DiscoverX Corporation, San Diego, CA, USA; catalogue number 93‐0207C2) as described. The mean IC50 from at least 3 separate experiments was reported.

In the next data set the target is T1, recombinant human GRK2 (Homo sapiens, UniProt P25098).
T1 construct: purchased Thermo Fisher PR4694A
T1 sequence (P25098 1-689): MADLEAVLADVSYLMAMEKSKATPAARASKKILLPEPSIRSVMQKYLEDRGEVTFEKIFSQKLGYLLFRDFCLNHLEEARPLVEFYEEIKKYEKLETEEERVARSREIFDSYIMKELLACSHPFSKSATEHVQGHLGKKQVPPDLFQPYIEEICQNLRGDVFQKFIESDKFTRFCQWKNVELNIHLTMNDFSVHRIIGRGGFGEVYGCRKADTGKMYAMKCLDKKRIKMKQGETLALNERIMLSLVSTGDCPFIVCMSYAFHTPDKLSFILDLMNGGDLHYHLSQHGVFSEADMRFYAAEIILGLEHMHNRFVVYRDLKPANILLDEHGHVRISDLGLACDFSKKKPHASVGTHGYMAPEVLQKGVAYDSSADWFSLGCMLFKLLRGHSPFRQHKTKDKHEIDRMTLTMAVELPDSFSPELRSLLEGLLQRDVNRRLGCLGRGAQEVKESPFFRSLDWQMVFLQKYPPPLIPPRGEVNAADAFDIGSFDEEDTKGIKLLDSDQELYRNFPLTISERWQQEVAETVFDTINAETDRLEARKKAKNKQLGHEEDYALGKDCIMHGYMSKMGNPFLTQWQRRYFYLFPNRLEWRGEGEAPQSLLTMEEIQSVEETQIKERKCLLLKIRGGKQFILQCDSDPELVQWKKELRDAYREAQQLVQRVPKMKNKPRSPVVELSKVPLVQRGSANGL
The experiment in a line: 33P-ATP flash plate kinase assay. To be noted: 3 µM ATP, biotin-[…] substrate. In kind it is biochemical.

In data set [1] the target is T2, S1P1 (Homo sapiens, UniProt P21453).
T2 construct: host or cells: HUVEC (pooled donors)
T2 sequence (P21453 whole entry): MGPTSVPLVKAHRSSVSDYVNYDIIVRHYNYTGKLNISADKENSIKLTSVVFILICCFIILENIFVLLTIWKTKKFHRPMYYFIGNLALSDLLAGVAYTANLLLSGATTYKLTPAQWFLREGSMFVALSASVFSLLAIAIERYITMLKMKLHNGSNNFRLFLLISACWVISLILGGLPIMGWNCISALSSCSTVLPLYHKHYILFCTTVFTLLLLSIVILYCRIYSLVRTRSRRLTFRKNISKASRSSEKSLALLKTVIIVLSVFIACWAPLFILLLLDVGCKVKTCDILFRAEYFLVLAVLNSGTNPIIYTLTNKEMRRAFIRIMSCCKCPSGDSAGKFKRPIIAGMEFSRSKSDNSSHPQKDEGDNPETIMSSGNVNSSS
Nature of the data set: Label-free impedance assay in HUVEC, first stimulation (early and late BNCI response). In kind it is cell-based. The settings on record: for Impedance profile in the presence of the GRK2 inhibitor: 10 µM GRK2 inhibitor, over 60 min; for Late phase Max: determined manually for bell-shaped responses; for pEC50: first stimulation, geometric mean; for Early phase Max: BNCI curve maximum; for Early phase Max / Early phase Min / Early phase Hill slope: early response; for Early phase Min: BNCI curve minimum; for Emax: read-out: Maximum BNCI in late response as % of E max in early response. As for the experimental part: (§1) HUVECs from pooled donors (PromoCell GmbH, Heidelberg, Germany, C‐12203) were seeded at 10 000 cells per well, in complete medium (C2210, C39210) containing 2% fetal bovine serum (FBS), in 96‐well collagen‐I coated E‐plates. Cells were allowed to attach and proliferate for 6 h, followed by overnight serum starvation in medium containing 0.1% FBS. Electrical impedance was measured continuously with RTCA‐MP station (xCELLigence RTCA, ACEA‐Biosciences, San Diego, CA, USA), according to the manufacturer’s protocol, and expressed as baseline normalized cell index (BNCI) using RTCA2.0 software. Impedance measurements were analyzed for 60 min following addition of test compounds or DMSO control, and the early (peak response at 8–10 min) and late response (at 60 min) was used for further analysis. Cells were then washed in medium containing 0.1% FBS for 5.5 h. The effect of each test compound to desensitize the response to a second stimulation with the natural ligand S1P (80 nM) was measured in the same wells and expressed as the AUC0–60 min of the S1P‐induced BNCI response. […] The baseline for the BNCI calculation was the respective vehicle responses for the first (0.1% DMSO) and second stimulations (2.5 µg·mL^−1 BSA). When tested, 10 µM GRK2 inhibitor was pretreated with cells for 2 h prior to addition of test compounds and its effect on early and late responses measured as above. All experiments were repeated on at least 3 separate occasions.
Effective concentration corresponding to half of the difference between the maximum and minimum effect (EC50) of agonists was determined with SAS procedure NLIN in SAS system release 9.1 under UNIX via BIOSTAT@T‐SPEED‐LTS v2.0 internal software using the 4‐parameter logistical model.

The conditions of data set [2]: cited from earlier work.
The target in data set [3] is T2, S1P1. Nature of the data set: Desensitization of S1P-induced BNCI response in HUVEC (second stimulation with 80 nM S1P). In kind it is cell-based. The settings on record: for Desensitization Max: S1P-induced BNCI response curve maximum; for Desensitization Max / Desensitization Min / Desensitization Hill slope: arithmetic mean; for Desensitization Min: S1P-induced BNCI response curve minimum; for pIC50: absolute 50% reduction of control S1P (80 nM)-induced BNCI AUC0–60 min after 5.5 h wash, geometric mean, read-out: Desensitization IC50 [95% CI]. As for the experimental part:
as §1
The activation‐to‐desensitization ratio was expressed as IC50/EC50 for early phase. EC50, IC50, and activation‐to‐desensitization ratio were reported as geometric mean with 95% confidence intervals.

Another data set has as its system lymphocytes. The settings on record: approved dose in MS; no reference given; cited from earlier work.
Where [4] appears, read: BNCI at 60 min, arithmetic mean.
The mark [5] stands for this setting: BNCI peak response at 8–10 min, read-out: Early phase EC50 [95% CI].
[6] abbreviates: late (60 min) versus early phase.

pEC50, pIC50: −log10 of the molar value. “Also recorded” adds a separate entry of the source. Read-outs that look alike come from different tables or passages of the source.

On to `O=C(NCc1ccc2onc(NCc3ccccc3C(F)(F)F)c2c1)c1ccc2[nH]ncc2c1` [GRK2 inhibitor, 1H‐Indazole‐5‐carboxylic acid [3‐(2‐trifluoromethyl‐benzylamino)‐1,2‐benzisoxazol‐5‐ylmethyl]‐amide], for which the pIC50 in the data set on human S1P1 was 5.96; on recombinant human GRK2 it was 7.36.
With `Cc1cc(-c2nc3cnc(Oc4cccc(Cl)c4)nc3o2)cc(C)c1OCC(=O)O` [SAR247799], the “Impedance profile in the presence of the GRK2 inhibitor” value on S1P1 [1] is “sustained BNCI increase with no signal decline over 60 min”. On S1P1 [1] (setting [4]), the “Late phase Hill slope” value stood at 0.7, the “Late phase Min” value was 0.045 and the “Late phase Max” value is reported as 0.425. Also, the pEC50 on S1P1 [1] (BNCI at 60 min, read-out: Late phase EC50 [95% CI]) was 7.37. On S1P1 [1] (arithmetic mean), the “Early phase Max” value turned out to be 0.527, the “Early phase Min” value turned out to be 0.101 and the “Early phase Hill slope” value is given as 1.0. Moreover, the pEC50 at S1P1 [1] (setting [5]) was 7.58. Further, the “Maximum BNCI in late response as % of E max in early response” value on S1P1 [1] (setting [6]) was determined as 81%. Moreover, the “Further increase of late response by presence of GRK inhibitor” value at S1P1 [1] (late response, 10 µM GRK inhibitor pretreated 2 h) worked out at 2 fold. The “Volume of distribution in human” value in data set [2] is 7–23 [13] L. In addition, on S1P1 [3], the “Desensitization Max” value is 89.3, the “Desensitization Min” value turned out to be 1.1, the negative logarithm of the IC50 (pIC50) is 5.53 and the “Desensitization Hill slope” value was −1.9.
For `CCC/N=C1\S/C(=C\c2ccc(OC[C@H](O)CO)c(Cl)c2)C(=O)N1c1ccccc1C` [Ponesimod, ponesimod], the “Shape of concentration–effect relationship in the late response” value (“Shape” for short) at S1P1 [1] (BNCI at 60 min) is “bell‐shaped”. For the same compound, the “Late phase Max” value on S1P1 [1] (setting [4]) is recorded as 0.468. At S1P1 [1] (arithmetic mean), the “Early phase Max” value is listed as 0.582, the “Early phase Min” value was found to be 0.175 and the “Early phase Hill slope” value worked out at 1.2. Further, the negative-log EC50 (pEC50) at S1P1 [1] (setting [5]) was 8.62. Also, at S1P1 [1] (setting [6]), the Emax was determined as 81%. Moreover, the “Volume of distribution in human” value in data set [2] is 160 [37] L. Moreover, at S1P1 [3], the “Desensitization Max” value is listed as 79.3, the “Desensitization Min” value is −38.2, the negative logarithm of the IC50 (pIC50) was 7.74 and the “Desensitization Hill slope” value was −0.9. Further, at S1P1 [3] (desensitization IC50 / early phase EC50, geometric mean), the “Activation-to-desensitization ratio [95% CI]” value is on record as 7.66 (3.41–17.2). Besides, the “S1P-induced BNCI response after preincubation at the highest concentrations tested” value on S1P1 [3] (second stimulation with S1P) is on record as “fall below the baseline”.
For the compound `CC(C)Oc1ccc(-c2nc(-c3cccc4c3CC[C@@H]4NCCO)no2)cc1C#N` [Ozanimod, ozanimod], in the data set on lymphocytes, the Lymphocyte reduction is on record as 55%. For the same compound, on S1P1 [1] (BNCI at 60 min), the “Shape” value is “bell‐shaped”. Further, the “Late phase Max” value at S1P1 [1] (setting [4]) was determined as 0.234. At S1P1 [1] (arithmetic mean), the “Early phase Max” value is listed as 0.461, the “Early phase Min” value is given as 0.188 and the “Early phase Hill slope” value was 1.1. Further, the Emax at S1P1 [1] (setting [6]) was determined as 51%. Besides, in data set [2], the “Volume of distribution in human” value is 5590 [5] L. Also, at S1P1 [3], the “Desensitization Max” value was 91.5, the “Desensitization Min” value is on record as −13.9 and the “Desensitization Hill slope” value was −1.5.
For the compound `CCCCCCCCc1ccc(CCC(N)(CO)CO)cc1` [fingolimod], the Lymphocyte reduction in the data set with lymphocytes is 70–80%.
Regarding `CCc1cc(/C(C)=N/OCc2ccc(C3CCCCC3)c(C(F)(F)F)c2)ccc1CN1CC(C(=O)O)C1` [Siponimod, siponimod], the Lymphocyte reduction with lymphocytes is 70–80%. On S1P1 [1], the “Impedance profile in the presence of the GRK2 inhibitor” value is “sustained BNCI increase with no signal decline over 60 min”. In addition, the “Barrier effect in late response in the presence of the GRK inhibitor” value at S1P1 [1] (10 µM GRK inhibitor, same concentrations that gave negative BNCI without inhibitor) was “improved barrier integrity”. Besides, at S1P1 [1] (60 min, absence of GRK inhibitor), the “Late response BNCI at highest concentrations (barrier effect)” value is given as “endothelial barrier disruption; also recorded: concentration‐dependent decrease to negative BNCI values”. The “Shape” value at S1P1 [1] (BNCI at 60 min) is recorded as “bell‐shaped”. Also, on S1P1 [1] (setting [4]), the “Late phase Max” value is listed as 0.150. At S1P1 [1] (arithmetic mean), the “Early phase Max” value is listed as 0.440, the “Early phase Min” value is given as 0.012 and the “Early phase Hill slope” value is 0.7. In addition, the pEC50 at S1P1 [1] (setting [5]) was 9.01. Further, the Emax at S1P1 [1] (setting [6]) amounted to 34%. Besides, at S1P1 [3], the “Desensitization Max” value was determined as 96.8, the “Desensitization Min” value is −16.3, the pIC50 was 9.78 and the “Desensitization Hill slope” value was −1.0.
